Results on three molecules are retold here after patent publication US9347888B2, “Detection of bacteria exhibiting a resistance to carbapenems” (BIOMERIEUX, priority 2011, dated 2016).

Data set [1] deals with IR (impermeability resistance) strains. Description: Impact of cloxacillin and/or PAbetaN with faropenem, agar dilution. Type of data set: cell-based, Gram-negative bacteria. How it is done: (§1) Seventy-seven strains of Gram-negative bacteria, of which 71 are enterobacteria and 6 non-enterobacteria (non-fermenting bacteria), whose resistance characteristics are set out in Table VIII, were tested on media containing different concentrations of faropenem and cloxacillin, with or without PAbetaN, in order to establish the sensitivity and the specificity of each formulation. The tested media are described in Table IX.
(§2) The chromogenic media are divided into 120×120 square dishes.
(§3) The seeding is performed from 24-h pre-cultures at 37° C. on trypcase soy agar. For each strain, a 0.5 McF suspension in physiological water is produced. Each suspension is spot-seeded (1 to 2 μL) on each medium with the aid of a multi-point inoculator according to the Agar Dilution (AD) method. Readings are performed after 24 hours of incubation at 37° C.
(§4) An absence of bacterial growth or a number of colonies which is less than or equal to 3 are considered as corresponding to growth inhibition. The presence of 4 colonies or more is considered to be positive growth.
A general note: In agar dilution the substance is mixed into plates at graded concentrations.

A further data set relates to Total carbapenemases. The description is as above. It counts as cell-based, Gram-negative bacteria. The note with it: cloxacillin alone (no PAbetaN), at the 3 concentrations of faropenem tested. The method, then: as §1, §2, §3, §4
The nature of data set [2]: Test of stability of the different carbapenems in agar medium. It counts as physicochemical. The settings on record: agar media kept at 2 to 8°C up to 9 weeks (63 days); strains seeded D0, D14, D42, D63. How it is done: Agar media modelled on those indicated supra were prepared and kept at a temperature of between 2 and 8° C. for up to 9 weeks (63 days).
ESBL and AmpC strains, and carbapenemases from class B, IR or KPC, were seeded on these different media on D0, D14, D42 and D63.

Data set [3] deals with carbapenemase-producing strains. Description: Faropenem on pure strains, agar dilution: detection sensitivity. Type of data set: cell-based, Gram-negative bacteria. The note with it: medium containing 16 mg/L faropenem; for Detection sensitivity (strains detected/strains): 24 h 37°C. How it is done:
(§5) Seventy-nine strains of Gram-negative bacteria, of which 69 are enterobacteria and 10 non-enterobacteria (non-fermenting bacteria), whose resistance characteristics are set out in Table I, were tested on media containing different concentrations of faropenem in order to establish the sensitivity/specificity of each formulation. The dishes were read after 24 hours of incubation at 37° C.
(§6) The medium used is a conventional agar medium comprising at least one chromogenic substrate, and supplemented with faropenem at the following concentrations:
(§7) The media are divided into 120×120 square dishes.
(§8) The seeding is performed from 24-h pre-cultures at 37° C. on trypcase soy agar.
(§9) For each strain, a 0.5 McF suspension in physiological water is produced and then diluted 1/100.
(§10) Each suspension is spot-seeded (1 to 2 μL) on each medium with the aid of a multi-point inoculator according to the Agar Dilution (AD) method.
(§11) Readings are performed after 24 hours of incubation at 37° C.
(§12) For interpretation, the following cases are considered as corresponding to growth inhibition: • absence of bacterial growth • number of colonies≦3
(§13) The presence of 4 colonies or more is considered to be positive growth.

Data set [4] concerns strains with other types of resistance (ESBL or cephalosporinase, impermeability resistance). Description: Faropenem on pure strains, agar dilution: detection specificity. It counts as cell-based, Gram-negative bacteria. The note with it: medium containing 16 mg/L faropenem; for Detection specificity (strains inhibited/strains): 24 h 37°C. How it is done: as §5, §6, §7, §8, §9, §10, §11, §12, §13

Another data set relates to KPC strains. Briefly: Faropenem on pure strains, agar dilution: MIC and growth of KPC strains. It counts as cell-based, Gram-negative bacteria. The method, then:
as §5, §6, §7, §8, §9, §10, §11, §12, §13

A value given as a limit tells only on which side of the number the result lay.

`Cc1onc(-c2ccccc2Cl)c1C(=O)N[C@@H]1C(=O)N2[C@@H]1SC(C)(C)[C@@H]2C(=O)O` [cloxacillin]: the “additional IR strains inhibited” value in data set [1] (addition of 50 mg/L cloxacillin at 16 mg/L of faropenem) is 6; in data set [1] (addition of 200 mg/L cloxacillin at 16 mg/L of faropenem) it was 9. In addition, the “impact on the growth of the carbapenemase-producing strains” value in the data set with Total carbapenemases is listed as “little or no impact”.
In the case of `C[C@@H](O)[C@H]1C(=O)N2C(C(=O)O)=C(S[C@@H]3CN[C@H](CNS(N)(=O)=O)C3)[C@H](C)[C@H]12` [doripenem], the “stability in agar medium” value in data set [2] was “close to that of ertapenem, and greater than that of imipenem and of meropenem”.
Regarding `C[C@@H](O)[C@H]1C(=O)N2C(C(=O)O)=C([C@H]3CCCO3)S[C@H]12` [faropenem], the Detection sensitivity in data set [3] (inoculum 0.5 McF) and in data set [3] (inoculum 0.5 McF diluted 1/100) was 91.4% throughout. In addition, the “Detection sensitivity (strains detected/strains)” value in data set [3] (inoculum 0.5 McF diluted 1/100) and in data set [3] (inoculum 0.5 McF) was 53/58 throughout. Moreover, the Detection specificity in data set [4] (inoculum 0.5 McF) stood at 66.7%; in data set [4] (inoculum 0.5 McF diluted 1/100) it was 71.4%. Moreover, the “Detection specificity (strains inhibited/strains)” value in data set [4] (inoculum 0.5 McF diluted 1/100) is on record as 15/21; in data set [4] (inoculum 0.5 McF), 14/21. Besides, in the data set on KPC strains (faropenem at 16 mg/L), the “KPC strains developing on the medium” value is listed as “All of the KPC strains develop”. The “MIC of the totality of KPC strains” value in the data set on KPC strains (whatever the inoculum tested, unit not printed (media in mg/L)) is given as above 32. In addition, in data set [2], the “stability in agar medium” value was “close to that of ertapenem, and greater than that of imipenem and of meropenem”. The “No. IR developing (/19)” value in data set [1] (PAbetaN 0, cloxacillin 0, faropenem 8 mg/L) is recorded as 16; in data set [1] (PAbetaN 0, cloxacillin 0, faropenem 16 mg/L), 15; in data set [1] (PAbetaN 0, cloxacillin 0, faropenem 32 mg/L) it was 10; in data set [1] (PAbetaN 0, cloxacillin 50, faropenem 8 mg/L), 14; in data set [1] (PAbetaN 0, cloxacillin 50, faropenem 16 mg/L), 9; in data set [1] (PAbetaN 0, cloxacillin 50, faropenem 32 mg/L), 4. Further, the “No. IR developing (/19)” value in data set [1] (PAbetaN 0, cloxacillin 100, faropenem 8 mg/L) was determined as 11; in data set [1] (PAbetaN 0, cloxacillin 100, faropenem 16 mg/L), 6; in data set [1] (PAbetaN 0, cloxacillin 100, faropenem 32 mg/L) it was 2; in data set [1] (PAbetaN 0, cloxacillin 200, faropenem 8 mg/L), 11; in data set [1] (PAbetaN 0, cloxacillin 200, faropenem 16 mg/L), 6; in data set [1] (PAbetaN 0, cloxacillin 200, faropenem 32 mg/L) it was 1. Besides, the “No. IR developing (/19)” value in data set [1] (PAbetaN 25, cloxacillin 50, faropenem 8 mg/L) turned out to be 11; in data set [1] (PAbetaN 25, cloxacillin 50, faropenem 16 mg/L), 10; in data set [1] (PAbetaN 25, cloxacillin 50, faropenem 32 mg/L) it was 5; in data set [1] (PAbetaN 25, cloxacillin 100, faropenem 8 mg/L), 10; in data set [1] (PAbetaN 25, cloxacillin 100, faropenem 16 mg/L), 5; in data set [1] (PAbetaN 25, cloxacillin 100, faropenem 32 mg/L), 1. The “No. IR developing (/19)” value in data set [1] (PAbetaN 25, cloxacillin 200, faropenem 8 mg/L) stood at 7; in data set [1] (PAbetaN 25, cloxacillin 200, faropenem 16 mg/L) it was 1; in data set [1] (PAbetaN 25, cloxacillin 200, faropenem 32 mg/L) it was 1. For the same molecule, the “impact on IR strains” value in data set [1] (faropenem alone, up to a concentration of 16 mg/L) is “little impact”.
